Several values for one entry are separate records, joined by “and”; a condition that tells them apart may be missing. Equal entries are not always repeated.
Tested on: luciferase reporter construct containing a UGA premature termination codon stably transfected in 293T Human Embryonic Kidney cells
Test: cell-based luciferase reporter assay (UGA premature termination codon)
Settings: ranking combining potency (minimum concentration to produce protein) and efficacy (maximum protein produced); 293T cells, UGA luciferase reporter; gentamicin internal standard
Protocol: Melting points in Table 1 were obtained on an Electrothermal MeltTemp apparatus and are uncorrected. Activity measurements in Table 1 were performed in a cell-based luciferase reporter assay (as described in Section 4.2) comprising a luciferase reporter construct containing a UGA premature termination codon that was stably transfected in 293T Human Embryonic Kidney cells. Gentamicin, a small molecule known to allow readthrough of premature termination codons, was used as an internal standard. Activity measurements are based on the qualitative relation between the minimum concentration of compound required to produce a given protein in a cell (potency) and the maximum amount of protein produced by the cell (efficacy). Potency and efficacy activities are ranked as either extremely high, very high or significant. The combination of these activities is used to determine the activity ranking.
Two assays were developed for use in high throughput screens to identify small molecules that promote nonsense suppression. Each assay utilized luciferase because it is a functional reporter gene assay (light is only produced if the protein is functional) and it is extremely sensitive (Light intensity is proportional to luciferase concentration in the nM range). The first assay is a cell-based luciferase reporter assay and the second is a biochemical assay consisting of rabbit reticulocyte lysate and a nonsense-containing luciferase reporter mRNA. In the cell-based assay, a luciferase reporter construct containing a UGA premature termination codon was stably transfected in 293T Human Embryonic Kidney cells. In the biochemical assay, mRNA containing a UGA premature termination codon was used as a reporter in an in vitro translation reaction using rabbit reticulocyte lysate supplemented with tRNA, hemin, creatine kinase, amino acids, KOAc, Mg(OAc)2, and creatine phosphate. […] Synthetic mRNA was prepared in vitro using the T7 promoter and the MegaScript in vitro transcription kit (Ambion).
To determine whether compounds also function in vivo, a stable cell line harboring the UGA nonsense-containing luciferase gene was treated with selected compounds. Cells were grown in standard medium supplemented with 1% penicillin-streptomycin (P/S) and 10% fetal bovine serum (FBS) to 70% confluency and split 1:1 the day before treatment. On the following day, cells were trypsinized and 40,000 cells were added to each well of a 96-well tissue culture dish. Serial dilutions of each compound were prepared to generate a six-point dose response curve spanning 2 logs (30 μM to 0.3 μM). The final concentration of the DMSO solvent remained constant at 1% in each well. Cells treated with 1% DMSO served as the background standard, and cells treated with gentamicin served as a positive control.
For `CC(C)(C)c1ccc(OC2CCN(c3cccc(C(=O)O)c3)C2=O)cc1` (stereo not drawn) [Compound 88, 3-[3-(4-tert-Butyl-phenoxy)-2-oxo-pyrrolidin-1-yl]-benzoic acid], the Activity was 0.

Tested on: not given
Test: not given
Settings: not given
`CC(C)(C)c1ccc(OC2CCN(c3cccc(C(=O)O)c3)C2=O)cc1` (stereo not drawn) [Compound 88, 3-[3-(4-tert-Butyl-phenoxy)-2-oxo-pyrrolidin-1-yl]-benzoic acid] gave a melting point of 238 to 241 °C.
Work on `O=C(COc1cccc(Nc2ccccc2)c1)Nc1cccc(C(=O)O)c1` [Compound 66, 3-[2-(3-Phenylamino-phenoxy)-acetylamino]-benzoic acid] yielded a melting point of 189 to 191 °C.
With `Cc1ccc(C(C)C)c(OCC(=O)Nc2cccc(C(=O)O)c2)c1` [Compound 40, 3-[2-(2-Isopropyl-5-methyl-phenoxy)-acetylamino]-benzoic acid] the melting point was 211 to 213 °C.
Compound `Cc1cc(OCC(=O)Nc2cccc(C(=O)O)c2Cl)ccc1C(C)C` [Compound 30, 2-chloro-3-[2-(4-isopropyl-3-methyl-phenoxy)-acetylamino]-benzoic acid] has a melting point of 161 to 162 °C.
Compound `O=C(COc1ccc(Nc2ccc([N+](=O)[O-])cn2)cc1)Nc1cccc(C(=O)O)c1` [Compound 63, 3-{2-[4-(5-Nitro-pyridin-2-ylamino)-phenoxy]-acetylamino}-benzoic acid] has a melting point of 284 to 285 °C.
With `O=C(COc1ccc2c(c1)CCCC2)Nc1cccc(C(=O)O)c1` [Compound 20, 3-[2-(5,6,7,8-tetrahydro-naphthalen-2-yloxy)-acetylamino]-benzoic acid] the melting point was 199 to 201 °C.
With `Cc1cc(OCC(=O)Nc2cccc(C(=O)O)c2)ccc1C(C)C` [Compound 4, 3-[2-(4-isopropyl-3-methyl-phenoxy)-acetylamino]-benzoic acid] the melting point was 191 to 192 °C and 188 to 189 °C.
`Cc1cc(OC(C)C(=O)Nc2cccc(C(=O)O)c2)ccc1C(C)C` (stereo not drawn) [Compound 47, 3-[2-(4-Isopropyl-3-methyl-phenoxy)-propionylamino]-benzoic acid] showed a melting point of 186 to 187 °C.
In the case of `Cc1c(F)cc(OC2CCN(c3cccc(C(=O)O)c3)C2=O)c(F)c1F` (stereo not drawn) [Compound 85, 3-[2-Oxo-3-(2,3,5-trifluoro-4-methyl-phenoxy)-pyrrolidin-1-yl]-benzoic acid], the melting point is reported as 190 to 191 °C.
`O=C(COc1ccc(Nc2ccc([N+](=O)[O-])cc2[N+](=O)[O-])cc1)Nc1cccc(C(=O)O)c1` [Compound 67, 3-{2-[4-(2,4-Dinitro-phenylamino)-phenoxy]-acetylamino}-benzoic acid] showed a melting point of 237 to 238 °C.
`CC(C)c1ccc(OCC(=O)Nc2cccc(C(=O)O)c2)cc1` [Compound 7, 3-[2-(4-isopropyl-phenoxy)-acetylamino]-benzoic acid] gave a melting point of 171 to 174 °C.
For `O=C(COc1ccc(CN2C(=O)c3ccccc3C2=O)cc1)Nc1cccc(C(=O)O)c1` [Compound 72], the melting point was 238 to 240 °C.
Compound `Cc1ccc(C(C)C)cc1OCC(=O)Nc1cccc(C(=O)O)c1` [Compound 45, 3-[2-(5-Isopropyl-2-methyl-phenoxy)-acetylamino]-benzoic acid] has a melting point of 211 to 213 °C.
Compound `O=C(COc1ccc(C(=O)c2ccccc2)cc1)Nc1cccc(C(=O)O)c1` [Compound 32, 3-[2-(4-benzoyl-phenoxy)-acetylamino]-benzoic acid] has a melting point of 208 to 210 °C.
Compound `CCCc1ccc(OCC(=O)Nc2cccc(C(=O)O)c2)cc1` [Compound 16, 3-[2-(4-propyl-phenoxy)-acetylamino]-benzoic acid] has a melting point of 185 to 186 °C.
In the case of `O=C(COc1ccc(Cl)c(F)c1)Nc1cccc(C(=O)O)c1` [Compound 54, 3-[2-(4-Chloro-3-fluoro-phenoxy)-acetylamino]-benzoic acid], the melting point is reported as 242 to 244 °C.
For `O=C(O)c1cccc(N2CCC(Oc3ccc(Br)cc3)C2=O)c1` (stereo not drawn) [Compound 76, 3-[3-(4-Bromo-phenoxy)-2-oxo-pyrrolidin-1-yl]-benzoic acid], the melting point was 196 to 197 °C.
`O=C(COc1ccc(OCc2ccccc2)cc1)Nc1cccc(C(=O)O)c1` [Compound 61, 3-[2-(4-Benzyloxy-phenoxy)-acetylamino]-benzoic acid] gave a melting point of 208 to 210 °C.
With `O=C(O)c1cccc(N2CCC(Oc3ccc(Oc4ccc(C(F)(F)F)cc4)cc3)C2=O)c1` (stereo not drawn) [Compound 37, 3{2-Oxo-3-[4-(4-trifluoromethyl-phenoxy)-phenoxy]-pyrrolidin-1-yl}-benzoic acid] the melting point was 175 to 178 °C.
For `COc1ccc(C(=O)O)cc1NC(=O)COc1cc(C)ccc1C(C)C` [Compound 44, 3-[2-(2-Isopropyl-5-methyl-phenoxy)-acetylamino]-4-methoxy-benzoic acid], the melting point was 253 to 255 °C.
Compound `O=C(O)c1cccc(N2CCC(Oc3ccc(OC(F)(F)F)cc3)C2=O)c1` (stereo not drawn) [Compound 86, 3-[2-Oxo-3-(4-trifluoromethoxy-phenoxy)-pyrrolidin-1-yl]-benzoic acid] has a melting point of 190 to 191 °C.
In the case of `Cc1cccc(OCC(=O)Nc2cccc(C(=O)O)c2)c1` [Compound 42, 3-[2-(5-Methyl-phenoxy)-acetylamino]-benzoic acid], the melting point is reported as 200 to 201 °C.
For `CCC(C)(C)c1ccc(OCC(=O)Nc2cccc(C(=O)O)c2)cc1` [Compound 15, 3-{2-[4-(1,1-dimethyl-propyl)-phenoxy]acetylamino)-benzoic acid], the melting point was 164 to 165 °C.
`CC(C)c1ccc(OC2CCN(c3cccc(C(=O)O)c3)C2=O)cc1` (stereo not drawn) [Compound 33, 3-[3-(4-Isopropyl-phenoxy)-2-oxo-pyrrolidin-1-yl]-benzoic acid] gave a melting point of 210 to 211 °C.
For `CC(C)c1ccc(COC2CCN(c3cccc(C(=O)O)c3)C2=O)cc1` (stereo not drawn) [Compound 79, 3-[3-(4-Isopropyl-benzyloxy)-2-oxo-pyrrolidin-1-yl]-benzoic acid], the melting point was 170 to 171 °C.
`CCc1ccc(OC2CCN(c3cccc(C(=O)O)c3)C2=O)cc1` (stereo not drawn) [Compound 83, 3-[3-(4-Ethyl-phenoxy)-2-oxo-pyrrolidin-1-yl]-benzoic acid] gave a melting point of 194 to 195 °C.
`Cc1cc(OCC(=O)Nc2cccc(C(=O)O)c2C)ccc1C(C)C` [Compound 59, 3-[2-(4-Isopropyl-3-methyl-phenoxy)-acetylamino]-2-methyl-benzoic acid] showed a melting point of 148 to 171 °C.
Work on `Cc1cccc(-c2ccc(OCC(=O)Nc3cccc(C(=O)O)c3)cc2)c1` [Compound 10, 3-[2-(3’-methyl-biphen-4-yloxy)-acetylamino]-benzoic acid] yielded a melting point of 225 to 226 °C.
`O=C(COc1ccc(Oc2ccc(C(F)(F)F)cc2)cc1)Nc1cccc(C(=O)O)c1` [Compound 68, 3-{2-[4-(4-Trifluoromethyl-phenoxy)-phenoxy]-acetylamino}-benzoic acid] showed a melting point of 189 to 190 °C.
For `O=C(COc1ccc2ccccc2c1)Nc1cccc(C(=O)O)c1` [Compound 52, 3-[2-(Naphthalen-2-yloxy)-acetylamino]-benzoic acid], the melting point was 223 to 224 °C.
Work on `O=C(COc1ccc(NC(=O)c2ccccc2)cc1)Nc1cccc(C(=O)O)c1` [Compound 64, 3-[2-(4-Benzoylamino-phenoxy)-acetylamino]-benzoic acid] yielded a melting point of 260 to 262 °C.
`CC(C)c1ccc(C(=O)CC(=O)Nc2cccc(C(=O)O)c2)cc1` [Compound 29, 3-[3-(4-isopropyl-phenyl)-3-oxo-propionylamino]-benzoic acid] gave a melting point of 262 to 263 °C.
For `O=C(COc1ccc(-c2ccccc2)cc1)Nc1cccc(C(=O)O)c1` [Compound 13, 3-[2-(biphen-4-yloxy)-acetylamino]-benzoic acid], the melting point was 245 to 246 °C.
For `Cc1cc(OCC(=O)Nc2cc(C(=O)O)ccc2Cl)ccc1C(C)C` [Compound 31, 4-chloro-3-[2-(4-isopropyl-3-methyl-phenoxy)-acetylamino]-benzoic acid], the melting point was 218 to 220 °C.
Compound `O=C(O)c1cccc(N2CCC(Oc3ccc4c(c3)OCO4)C2=O)c1` (stereo not drawn) [Compound 36, 3-[3-(Benzo[1,3]dioxol-5-yloxy)-2-oxo-pyrrolidin-1-yl]-benzoic acid] has a melting point of 194 to 197 °C.
With `Cc1cc(OCC(=O)Nc2ccc(O)c(C(=O)O)c2)ccc1C(C)C` [Compound 56, 2-Hydroxy-5-[2-(4-isopropyl-3-methyl-phenoxy)-acetylamino] benzoic acid] the melting point was 101 to 103 °C.
With `O=C(O)c1cccc(N2CCC(Oc3ccc(Cl)cc3)C2=O)c1` (stereo not drawn) [Compound 75, 3-[3-(4-Chloro-phenoxy)-2-oxo-pyrrolidin-1-yl]-benzoic acid] the melting point was 192 to 193 °C.
Compound `CC(C)c1ccccc1OCC(=O)Nc1cccc(C(=O)O)c1` [Compound 43, 3-[2-(2-Isopropyl-phenoxy)-acetylamino]-benzoic acid] has a melting point of 168 to 170 °C.

Reference: patent US7763656B2, “Use of Acetylamino benzoic acid compounds for nonsense suppression and the treatment of disease” (PTC Therapeutics, Inc., priority 2002, dated 2010)
